# Experimental data: US9206159B2, “Piperazine-piperidine compounds as hepatitis C virus inhibitors” (Theravance Biopharma R&D IP, LLC, priority 2012, dated 2015)
# Tested on: HCV genotype 1a replicon cell line
# Assay: HCV Genotype 1a Replicon Assay
# Assay type: cell-based, hepatitis C virus
# Settings: Hepatitis C virus, Huh7.5 cell background, NS3-specific protease activity in lysates, 48 or 72 hours, read-out: Genotype 1a (pEC50 class) (converted)
# Protocol: Assay 2: HCV Genotype 1a Replicon Assay
# The HCV genotype 1a replicon cell line was obtained from Apath LLC (APC89; Huh7.5 cell background). This subgenomic replicon contains the N-terminus of the HCV core protein fused to the neomycin-resistance selectable marker. The EMCV IRES lies downstream and drives expression of the non-structural proteins NS3-NS5B. Compound potencies were determined using the NS3-specific protease activity in lysates as a measurement of compound inhibition of replicon levels.
# Cells were grown at 37° C. in a 5% CO2 humidified incubator in DMEM (Invitrogen) with 10% FBS (HyClone), 1×NEAA (Invitrogen), 1× Pen-Strep (Invitrogen), and 850 μg/mL G418 (Invitrogen). On day 1 of the assay, cells were plated at 15,000 cells/well in black 96-well tissue culture plates (Costar) in 200 μL media lacking G418. Four hours later, once the cells had adhered, the media was removed and replaced with media (no G418) containing dose-responses of test compounds. Compounds were initially diluted in DMSO and then diluted another 200× in media to bring the final DMSO concentration down to 0.5%. The cells were incubated with test compounds for 48 or 72 hours. At the end of the incubation period, media and compound were removed from the plates.
# To determine the NS3-specific protease activity in lysates, the cells were lysed at room temperature in 50 μL/well of 50 mM Hepes pH 7.5, 150 mM NaCl, 15% Glycerol, 0.15% Triton X-100, 10 mM DTT for 20 minutes with shaking. 50 μL of an NS3/4a protease-specific FRET substrate (Anaspec RET SI Cat#22991) was then added to the wells at a final concentration of 15 μM. The plates were incubated at 37° C. for 20 minutes, which corresponds to a timepoint at which the protease activity is still in the linear phase. Protease activity was determined by measuring fluorescence (Excitation: 340 nm; Emission: 509 nm).
# To analyze the data, the fluorescence was plotted vs. the compound concentration, and EC50 values were determined from a 4-parameter robust fit model using GraphPad Prism software.
row,Compound,EC50
1,"COC(=O)N[C@H](C(=O)N1C[C@@H](C)C[C@H]1c1nc(-c2ccc(-c3cc(Cl)c(NC(=O)N4CCN(C5CCN(C(=O)C6CC6(Cl)Cl)CC5)CC4)cc3OC(F)(F)F)cc2)c[nH]1)C(C)C (stereo partly drawn) [Example 2, [(S)-1-((S)-2-{4-[5′-Chloro-4′-({4-[1-(2,2-dichloro-cyclopropanecarbonyl)-piperidin-4-yl]-piperazine-1-carbonyl}-amino)-2′-trifluoromethoxy-biphenyl-4-yl]-1H-imidazol-2-yl}-4-methyl-pyrrolidine-1-carbonyl)-2-methyl-propyl]-carbamic acid methyl ester]",1 to 10 nM

# Same assay, conditions: Huh7.5 cell background, NS3-specific protease activity in lysates, 48 or 72 hours
row,Compound,Genotype 1a (pEC50 class)
1,COC(=O)NC(C(=O)N1CCCC1c1nc(-c2ccc(-c3ccc(NC(=O)N4CCN(C5CCN(C(=O)C(C)(C)C)CC5)C(CO)C4)cc3OC(F)(F)F)cc2)c[nH]1)C(C)C (stereo not shown) [Example 1-42],B (B represents pEC50 between 8 and 9 (EC50 between 1 and 10 nM))
2,CNC(=O)N1CCC(N2CCN(C(=O)Nc3ccc(-c4ccc(-c5c[nH]c(C6CCCN6C(=O)C(NC(=O)OC)C(C)C)n5)cc4)c(OC(F)(F)F)c3)CC2CO)CC1 (stereo not shown) [Example 1-43],A (A represents a pEC50 value between 6 and 8 (EC50 between 1 μM and 10 nM))
3,COC(=O)NC(C(=O)N1CCCC1c1nc(-c2ccc(-c3ccc(NC(=O)N4CCN(C5CCN(C(=O)C6CC6)CC5)C(CO)C4)cc3OC(F)(F)F)cc2)c[nH]1)C(C)C (stereo not shown) [Example 1-44],A (A represents a pEC50 value between 6 and 8 (EC50 between 1 μM and 10 nM))
4,COC(=O)NC(C(=O)N1CCCC1c1nc(-c2ccc(-c3ccc(NC(=O)N4CCN(C5CCN(C(=O)C6CC6(C)C)CC5)C(CO)C4)cc3OC(F)(F)F)cc2)c[nH]1)C(C)C (stereo not shown) [Example 1-45],B (B represents pEC50 between 8 and 9 (EC50 between 1 and 10 nM))
5,COC(=O)N[C@H](C(=O)N1C[C@@H](C)C[C@H]1c1nc(-c2ccc(-c3ccc(NC(=O)N4CCN(C5CCN(C(=O)C6CC6)CC5)CC4)cc3OC(F)(F)F)cc2)c[nH]1)C(C)C [Example 2-1],D (D represents pEC50>10 (EC50<0.1 nM))
6,COC(=O)N[C@H](C(=O)N1C[C@@H](C)C[C@H]1c1nc(-c2ccc(-c3cc(F)c(NC(=O)N4CCN(C5CCN(C(=O)OC(C)(C)C)CC5)CC4)cc3OC(F)(F)F)cc2)c[nH]1)C(C)C [Example 2-2],D (D represents pEC50>10 (EC50<0.1 nM))
7,COC(=O)N[C@H](C(=O)N1C[C@@H](C)C[C@H]1c1nc(-c2ccc(-c3cc(F)c(NC(=O)N4CCN(C5CCN(C(=O)C6CC6)CC5)CC4)cc3OC(F)(F)F)cc2)c[nH]1)C(C)C [Example 2-3],D (D represents pEC50>10 (EC50<0.1 nM))
8,CNC(=O)N1CCC(N2CCN(C(=O)Nc3cc(OC(F)(F)F)c(-c4ccc(-c5c[nH]c([C@@H]6C[C@H](C)CN6C(=O)[C@@H](NC(=O)OC)C(C)C)n5)cc4)cc3F)CC2)CC1 [Example 2-4],D (D represents pEC50>10 (EC50<0.1 nM))
9,CNC(=O)N1CCC(N2CCN(C(=O)Nc3cc(OC(F)(F)F)c(-c4ccc(-c5c[nH]c([C@@H]6C[C@H](C)CN6C(=O)[C@@H](NC(=O)OC)C(C)C)n5)cc4)cc3Cl)CC2)CC1 [Example 2-7],"C (C represents pEC50 between and 9 and about 10, (EC50 between 1 nM and 0.1 nM))"
10,COC(=O)N[C@H](C(=O)N1C[C@@H](C)C[C@H]1c1nc(-c2ccc(-c3cc(Cl)c(NC(=O)N4CCN(C5CCN(C(=O)OC(C)(C)C)CC5)CC4)cc3OC(F)(F)F)cc2)c[nH]1)C(C)C [Example 2-8],"C (C represents pEC50 between and 9 and about 10, (EC50 between 1 nM and 0.1 nM))"
11,COC(=O)N[C@H](C(=O)N1C[C@@H](C)C[C@H]1c1nc(-c2ccc(-c3ccc(NC(=O)N4CCN(C5CCN(C(=O)C6CC6(F)F)CC5)CC4)cc3OC(F)(F)F)cc2)c[nH]1)C(C)C (stereo partly shown) [Example 2-10],"C (C represents pEC50 between and 9 and about 10, (EC50 between 1 nM and 0.1 nM))"
12,COC(=O)N[C@H](C(=O)N1C[C@@H](C)C[C@H]1c1nc(-c2ccc(-c3ccc(NC(=O)N4CCN(C5CCN(C(=O)[C@H]6CC6(C)C)CC5)CC4)cc3OC(F)(F)F)cc2)c[nH]1)C(C)C [Example 2-11],D (D represents pEC50>10 (EC50<0.1 nM))
13,CNC(=O)N1CCC(N2CCN(C(=O)Nc3ccc(-c4ccc(-c5c[nH]c([C@@H]6C[C@H](C)CN6C(=O)[C@@H](NC(=O)OC)C(C)C)n5)cc4)c(OC(F)(F)F)c3)CC2)CC1 [Example 2-12],"C (C represents pEC50 between and 9 and about 10, (EC50 between 1 nM and 0.1 nM))"
14,COC(=O)N[C@H](C(=O)N1C[C@@H](C)C[C@H]1c1nc(-c2ccc(-c3cc(F)c(NC(=O)N4CCN(C5CCN(C(=O)C6CC6(F)Cl)CC5)CC4)cc3OC(F)(F)F)cc2)c[nH]1)C(C)C (stereo partly shown) [Example 2-14],"C (C represents pEC50 between and 9 and about 10, (EC50 between 1 nM and 0.1 nM))"
15,COC(=O)N[C@H](C(=O)N1C[C@@H](C)C[C@H]1c1nc(-c2ccc(-c3cc(F)c(NC(=O)N4CCN(C5CCN(C(=O)C6CC6(Cl)Cl)CC5)CC4)cc3OC(F)(F)F)cc2)c[nH]1)C(C)C (stereo partly shown) [Example 2-15],"C (C represents pEC50 between and 9 and about 10, (EC50 between 1 nM and 0.1 nM))"
16,COC(=O)N[C@H](C(=O)N1C[C@@H](C)C[C@H]1c1nc(-c2ccc(-c3ccc(NC(=O)N4CCN(C5CCN(C(=O)OC(C)(C)C)CC5)CC4)cc3OC(F)(F)F)cc2)c(Cl)[nH]1)C(C)C [Example 2-18],"C (C represents pEC50 between and 9 and about 10, (EC50 between 1 nM and 0.1 nM))"
17,COC(=O)N[C@H](C(=O)N1C[C@@H](C)C[C@H]1c1nc(-c2ccc(-c3cc(Cl)c(NC(=O)N4CCN(C5CCN(C(=O)C6CC(F)(F)C6)CC5)CC4)cc3OC(F)(F)F)cc2)c[nH]1)C(C)C [Example 2-22],B (B represents pEC50 between 8 and 9 (EC50 between 1 and 10 nM))
18,[2H]C([2H])([2H])C1(C([2H])([2H])[2H])CC1C(=O)N1CCC(N2CCN(C(=O)Nc3cc(OC(F)(F)F)c(-c4ccc(-c5c[nH]c([C@@H]6C[C@H](C)CN6C(=O)[C@@H](NC(=O)OC)C(C)C)n5)cc4)cc3Cl)CC2)CC1 (stereo partly shown) [Example 2-23],"C (C represents pEC50 between and 9 and about 10, (EC50 between 1 nM and 0.1 nM))"
19,COC(=O)N[C@H](C(=O)N1C[C@@H](C)C[C@H]1c1nc(-c2ccc(-c3cc(Cl)c(NC(=O)N4CCN(C5CCN(C(=O)C6CC67CC7)CC5)CC4)cc3OC(F)(F)F)cc2)c[nH]1)C(C)C (stereo partly shown) [Example 2-24],B (B represents pEC50 between 8 and 9 (EC50 between 1 and 10 nM))
20,COC(=O)N[C@H](C(=O)N1C[C@@H](C)C[C@H]1c1nc(-c2ccc(-c3cc(Cl)c(NC(=O)N4CCN(C5CCN(C(=O)C6CC(C)(C)C6)CC5)CC4)cc3OC(F)(F)F)cc2)c[nH]1)C(C)C [Example 2-25],B (B represents pEC50 between 8 and 9 (EC50 between 1 and 10 nM))
21,COC(=O)N[C@H](C(=O)N1C[C@@H](C)C[C@H]1c1nc(-c2ccc(-c3ccc(NC(=O)N4CCN(C5CCN(C(=O)C6CC6)CC5)CC4)cc3OC(F)(F)F)cc2)c(Cl)[nH]1)C(C)C [Example 2-26],D (D represents pEC50>10 (EC50<0.1 nM))
22,[2H]C([2H])([2H])C1(C([2H])([2H])[2H])CC1C(=O)N1CCC(N2CCN(C(=O)Nc3ccc(-c4ccc(-c5nc([C@@H]6C[C@H](C)CN6C(=O)[C@@H](NC(=O)OC)C(C)C)[nH]c5Cl)cc4)c(OC(F)(F)F)c3)CC2)CC1 (stereo partly shown) [Example 2-27],D (D represents pEC50>10 (EC50<0.1 nM))
23,COC(=O)N[C@H](C(=O)N1C[C@@H](C)C[C@H]1c1nc(-c2ccc(-c3ccc(NC(=O)N4CCN(C5CCN(C(=O)OC(C)(C)C)CC5)CC4)cc3OC(F)(F)F)cc2)c(F)[nH]1)C(C)C [Example 2-28],D (D represents pEC50>10 (EC50<0.1 nM))
24,COC(=O)N[C@H](C(=O)N1C[C@@H](C)C[C@H]1c1nc(-c2ccc(-c3ccc(NC(=O)N4CCN(C5CCN(C(=O)C(C)(C)CO)CC5)CC4)cc3OC(F)(F)F)cc2)c[nH]1)C(C)C [Example 2-29],"C (C represents pEC50 between and 9 and about 10, (EC50 between 1 nM and 0.1 nM))"
25,COC(=O)N[C@H](C(=O)N1CCC[C@H]1c1nc(-c2ccc(-c3ccc(NC(=O)N4CCC(N5CCN(C(=O)OC(C)(C)C)CC5)CC4)cc3)cc2)c[nH]1)C(C)C [Example 3-1],A (A represents a pEC50 value between 6 and 8 (EC50 between 1 μM and 10 nM))
26,COC(=O)N[C@H](C(=O)N1CCC[C@H]1c1nc(-c2ccc(-c3ccc(NC(=O)N4CCC(N5CCN(C(=O)C6CC6)CC5)CC4)cc3)cc2)c[nH]1)C(C)C [Example 3-3],A (A represents a pEC50 value between 6 and 8 (EC50 between 1 μM and 10 nM))
27,CNC(=O)N1CCN(C2CCN(C(=O)Nc3ccc(-c4ccc(-c5c[nH]c([C@@H]6CCCN6C(=O)[C@@H](NC(=O)OC)C(C)C)n5)cc4)cc3)CC2)CC1 [Example 3-5],A (A represents a pEC50 value between 6 and 8 (EC50 between 1 μM and 10 nM))
